Like-named read-outs stand apart in the source and are kept apart here.
What was measured:
[1] = tested on: CYP2C-1; experiment: IC50 of vortioxetine on CYP2C-1 (amodiaquine) in RLMs; assay type: in vitro ADME; details: rat, rat liver microsomes, probe amodiaquine
Method: (§1) The components of the incubation system were as follows: 0.20 mg/mL HLMs or 0.20 mg/mL RLMs, 0.1 M Tris-HCl, vortioxetine, and the probe substrates of each enzyme. In the study of Km’s (Michaelis–Menten constant) experiment, midazolam (1, 2, 5, 10, 20, 50 and 100 μM in HLMs and RLMs) corresponded to CYP3A4/3A; bupropion (10, 20, 50, 100, 200, 500, 1,000 and 2000 μM in HLMs; 1, 2, 5, 10, 20, 50, 100 and 200 μM in RLMs) corresponded to CYP2B6/2B; amodiaquine (5, 10, 20, 50, 100 and 200 μM in HLMs; 10, 20, 50, 100, 200, 500 μM in RLMs) corresponded to CYP2C8/CYP2C-1; losartan (1, 2, 5, 10, 20, 50, 100, 200 μM in HLMs; 10, 20, 50, 100, 200, 500 and 1,000 μM in RLMs) corresponded to CYP2C9/CYP2C-2; mephenytoin (20, 50, 100, 200, 500 and 1,000 μM in HLMs; 5, 10, 20, 50, 100, 200, 500 and 1,000 μM in RLMs) corresponded to CYP2C19/CYP2C-3; and dextromethorphan (1, 2, 5, 10, 20, 50 and 100 μM in HLMs and RLMs) corresponded to CYP2D6/CYP2D. […]
(§2) All experiments results were detected by UPLC-MS/MS, which equipped with a Waters Acquity UPLC system (Milford, MA, United States) and a Waters Xevo TQ-S triple quadrupole tandem mass spectrometer with an electrospray ionization source (Milford, MA, United States). […]
(§3) IC50 values and enzyme kinetic parameters were calculated by Graphpad Prism 6.0 (GraphPad software Inc., CA, United States). […] Data for each experiment were expressed as mean ± SD (n = 3).

[2] = tested on: CYP2C-3; experiment: IC50 of vortioxetine on CYP2C-3 (mephenytoin) in RLMs; assay type: in vitro ADME; details: rat, rat liver microsomes, probe mephenytoin
Method: as §1, §2, §3

[3] = set-up: method as in Chen et al., 2018; details: single oral dose of 10 mg; 14 healthy subjects; ref Chen et al., 2018; cited from earlier work
[4] = target: T1, CYP2B6 (Homo sapiens, UniProt P20813); experiment: IC50 of vortioxetine on CYP2B6 (bupropion) in HLMs; assay type: in vitro ADME; set-up: 0.20 mg/mL HLMs; from tissue; host or cells: human liver microsomes
T1 sequence (P20813 1-491): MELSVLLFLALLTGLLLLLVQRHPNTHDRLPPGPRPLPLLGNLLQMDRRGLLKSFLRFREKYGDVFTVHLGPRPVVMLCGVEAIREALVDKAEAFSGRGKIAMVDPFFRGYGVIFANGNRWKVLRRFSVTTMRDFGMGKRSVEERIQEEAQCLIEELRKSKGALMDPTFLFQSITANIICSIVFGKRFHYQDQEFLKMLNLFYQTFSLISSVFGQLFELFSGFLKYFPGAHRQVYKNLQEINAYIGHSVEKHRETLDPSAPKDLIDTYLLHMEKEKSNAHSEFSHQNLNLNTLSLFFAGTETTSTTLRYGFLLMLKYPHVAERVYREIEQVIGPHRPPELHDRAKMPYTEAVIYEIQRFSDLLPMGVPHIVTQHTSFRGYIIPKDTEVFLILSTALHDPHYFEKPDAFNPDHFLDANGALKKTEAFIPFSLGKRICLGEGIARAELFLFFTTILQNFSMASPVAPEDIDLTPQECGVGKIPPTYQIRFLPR
Method: as §1, §2, §3

[5] = target: CYP2D6 (Homo sapiens, UniProt P10635); experiment: IC50 of vortioxetine on CYP2D6 (dextromethorphan) in HLMs; assay type: in vitro ADME; set-up: 0.20 mg/mL HLMs; from tissue; host or cells: human liver microsomes
Method: as §1, §2, §3

[6] = inhibitory effect (strength judged by IC50), RLMs
[7] = inhibitory effect (strength judged by IC50), HLMs

Sequence of CYP2D6 (P10635 whole entry): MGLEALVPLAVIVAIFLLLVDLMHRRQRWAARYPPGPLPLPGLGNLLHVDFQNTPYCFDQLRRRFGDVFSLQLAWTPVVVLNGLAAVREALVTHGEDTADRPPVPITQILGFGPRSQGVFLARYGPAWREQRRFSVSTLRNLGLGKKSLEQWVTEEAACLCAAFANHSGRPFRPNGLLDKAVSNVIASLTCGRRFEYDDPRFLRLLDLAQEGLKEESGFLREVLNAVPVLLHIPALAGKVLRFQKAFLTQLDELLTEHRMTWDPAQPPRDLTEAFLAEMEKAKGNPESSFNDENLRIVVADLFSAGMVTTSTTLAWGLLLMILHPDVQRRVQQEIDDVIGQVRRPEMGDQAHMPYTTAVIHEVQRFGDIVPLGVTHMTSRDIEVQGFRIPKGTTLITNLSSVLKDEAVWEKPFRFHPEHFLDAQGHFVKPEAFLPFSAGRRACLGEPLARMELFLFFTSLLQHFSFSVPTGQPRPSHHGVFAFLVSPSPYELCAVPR

IC50 at 30 min ([1]; RLMs 0.20 mg/mL, amodiaquine at Km, 37°C, 30 min, read-out: IC50): 22.2 µM
IC50 at 30 min [1, 6]: > 10 µM
IC50 at 30 min ([2]; RLMs 0.20 mg/mL, mephenytoin at Km, 37°C, 30 min, read-out: IC50): 20.3 µM
IC50 at 30 min [2, 6]: > 10 µM
IC50 ([4]; HLMs 0.20 mg/mL, bupropion at Km, 37°C, 30 min, read-out: IC50): 8.94 µM
IC50 [4, 7]: 1 to 10 µM
IC50 ([5]; HLMs 0.20 mg/mL, dextromethorphan at Km, 37°C, 30 min, read-out: IC50): 17.9 µM
IC50 [5, 7]: > 10 µM
Compound: Cc1ccc(Sc2ccccc2N2CCNCC2)c(C)c1 [vortioxetine]
AUC(0-t) [3]: 254.72 ngh/mL
Cmax [3]: 4.60 ng/mL

From article PMC10544575, “Inhibitory mechanism of vortioxetine on CYP450 enzymes in human and rat liver microsomes” (Frontiers in Pharmacology, 2023)
